# Key:
# [1] = target: Cyclin-dependent kinase 18 (Homo sapiens) (UniProt Q07002); settings: Compound concentration 100.0 nM
# [2] = system: Tyrosine-protein kinase ABL1 (Homo sapiens), P00519 [F317L]; settings: Compound concentration 100.0 nM
# [3] = target: Serine/threonine-protein kinase OSR1 (Homo sapiens) (UniProt O95747); settings: Compound concentration 100.0 nM
# [4] = target: Serine/threonine-protein kinase WNK4 (Homo sapiens) (UniProt Q96J92); settings: Compound concentration 100.0 nM
# [5] = target: Serine/threonine-protein kinase 4 (Homo sapiens) (UniProt Q13043); settings: Compound concentration 100.0 nM
# Chain of Serine/threonine-protein kinase 4 (Homo sapiens) (Q13043 whole entry, the tested form may be a part): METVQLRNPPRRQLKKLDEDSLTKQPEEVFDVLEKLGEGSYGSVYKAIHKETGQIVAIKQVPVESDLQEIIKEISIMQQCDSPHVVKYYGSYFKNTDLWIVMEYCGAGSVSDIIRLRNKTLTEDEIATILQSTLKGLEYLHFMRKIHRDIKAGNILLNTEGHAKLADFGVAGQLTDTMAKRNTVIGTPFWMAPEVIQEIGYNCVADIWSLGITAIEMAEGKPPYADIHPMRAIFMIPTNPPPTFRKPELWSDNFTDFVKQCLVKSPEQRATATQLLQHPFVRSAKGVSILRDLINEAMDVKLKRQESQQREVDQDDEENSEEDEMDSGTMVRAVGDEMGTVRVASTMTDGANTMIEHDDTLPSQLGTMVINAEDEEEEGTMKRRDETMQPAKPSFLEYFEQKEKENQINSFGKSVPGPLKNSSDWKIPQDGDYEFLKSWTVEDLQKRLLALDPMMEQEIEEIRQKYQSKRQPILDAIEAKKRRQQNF
# [6] = target: Epithelial discoidin domain-containing receptor 1 (Homo sapiens) (UniProt Q08345); settings: Compound concentration 100.0 nM
# [7] = target: Receptor-type tyrosine-protein kinase FLT3 (Homo sapiens) (UniProt P36888); settings: Compound concentration 100.0 nM
# [8] = target: Tyrosine-protein kinase receptor Tie-1 (Homo sapiens) (UniProt P35590); settings: Compound concentration 100.0 nM
# [9] = target: Cyclin-dependent kinase 8 (Homo sapiens) (UniProt P49336); settings: Compound concentration 100.0 nM
# Chain of Cyclin-dependent kinase 8 (Homo sapiens) (P49336 whole entry): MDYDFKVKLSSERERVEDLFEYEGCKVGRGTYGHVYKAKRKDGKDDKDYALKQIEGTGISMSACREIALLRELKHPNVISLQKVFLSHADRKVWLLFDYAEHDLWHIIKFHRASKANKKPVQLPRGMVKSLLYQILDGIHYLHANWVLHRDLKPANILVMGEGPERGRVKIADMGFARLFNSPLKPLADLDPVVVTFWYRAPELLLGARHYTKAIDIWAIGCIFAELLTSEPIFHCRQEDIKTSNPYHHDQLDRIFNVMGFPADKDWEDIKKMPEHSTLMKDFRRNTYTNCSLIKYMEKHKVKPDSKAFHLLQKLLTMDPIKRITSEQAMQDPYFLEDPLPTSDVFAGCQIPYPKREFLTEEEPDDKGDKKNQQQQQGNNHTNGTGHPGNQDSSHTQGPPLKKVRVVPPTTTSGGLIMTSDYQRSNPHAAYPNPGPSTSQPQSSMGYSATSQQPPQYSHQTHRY
# [10] = target: Beta-2 adrenergic receptor (Homo sapiens) (UniProt P07550); settings: Compound concentration 10.0 uM
# [11] = target: Serine/threonine-protein kinase 17A (Homo sapiens) (UniProt Q9UEE5); settings: Compound concentration 100.0 nM
# [12] = target: Calcium/calmodulin-dependent protein kinase type 1B (Homo sapiens) (UniProt Q6P2M8); settings: Compound concentration 100.0 nM
# [13] = target: Serine/threonine-protein kinase Nek11 (Homo sapiens) (UniProt Q8NG66); settings: Compound concentration 100.0 nM
# Chain of Serine/threonine-protein kinase Nek11 (Homo sapiens) (Q8NG66 whole entry): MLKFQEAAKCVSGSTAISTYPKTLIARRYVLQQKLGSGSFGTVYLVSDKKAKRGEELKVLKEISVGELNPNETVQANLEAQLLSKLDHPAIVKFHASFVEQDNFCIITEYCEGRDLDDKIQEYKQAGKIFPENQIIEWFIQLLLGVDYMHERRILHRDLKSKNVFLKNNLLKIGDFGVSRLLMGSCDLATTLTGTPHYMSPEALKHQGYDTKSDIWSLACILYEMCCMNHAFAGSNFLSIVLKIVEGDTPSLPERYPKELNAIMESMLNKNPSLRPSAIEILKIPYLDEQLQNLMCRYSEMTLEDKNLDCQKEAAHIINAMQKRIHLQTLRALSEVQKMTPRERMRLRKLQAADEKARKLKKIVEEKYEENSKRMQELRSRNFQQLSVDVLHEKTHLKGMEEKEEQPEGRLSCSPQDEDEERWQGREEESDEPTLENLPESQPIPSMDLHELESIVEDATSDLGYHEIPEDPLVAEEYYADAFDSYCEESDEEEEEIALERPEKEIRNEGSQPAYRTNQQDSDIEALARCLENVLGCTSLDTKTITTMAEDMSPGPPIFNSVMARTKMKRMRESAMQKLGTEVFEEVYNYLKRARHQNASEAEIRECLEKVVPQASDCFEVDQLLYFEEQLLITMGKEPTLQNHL
# [14] = target: Tyrosine-protein kinase JAK2 (Homo sapiens) (UniProt O60674); settings: Compound concentration 100.0 nM
# [15] = target: T1, Serine/threonine-protein kinase D2 (Homo sapiens) (UniProt Q9BZL6); settings: Compound concentration 100.0 nM
# T1 sequence (whole entry): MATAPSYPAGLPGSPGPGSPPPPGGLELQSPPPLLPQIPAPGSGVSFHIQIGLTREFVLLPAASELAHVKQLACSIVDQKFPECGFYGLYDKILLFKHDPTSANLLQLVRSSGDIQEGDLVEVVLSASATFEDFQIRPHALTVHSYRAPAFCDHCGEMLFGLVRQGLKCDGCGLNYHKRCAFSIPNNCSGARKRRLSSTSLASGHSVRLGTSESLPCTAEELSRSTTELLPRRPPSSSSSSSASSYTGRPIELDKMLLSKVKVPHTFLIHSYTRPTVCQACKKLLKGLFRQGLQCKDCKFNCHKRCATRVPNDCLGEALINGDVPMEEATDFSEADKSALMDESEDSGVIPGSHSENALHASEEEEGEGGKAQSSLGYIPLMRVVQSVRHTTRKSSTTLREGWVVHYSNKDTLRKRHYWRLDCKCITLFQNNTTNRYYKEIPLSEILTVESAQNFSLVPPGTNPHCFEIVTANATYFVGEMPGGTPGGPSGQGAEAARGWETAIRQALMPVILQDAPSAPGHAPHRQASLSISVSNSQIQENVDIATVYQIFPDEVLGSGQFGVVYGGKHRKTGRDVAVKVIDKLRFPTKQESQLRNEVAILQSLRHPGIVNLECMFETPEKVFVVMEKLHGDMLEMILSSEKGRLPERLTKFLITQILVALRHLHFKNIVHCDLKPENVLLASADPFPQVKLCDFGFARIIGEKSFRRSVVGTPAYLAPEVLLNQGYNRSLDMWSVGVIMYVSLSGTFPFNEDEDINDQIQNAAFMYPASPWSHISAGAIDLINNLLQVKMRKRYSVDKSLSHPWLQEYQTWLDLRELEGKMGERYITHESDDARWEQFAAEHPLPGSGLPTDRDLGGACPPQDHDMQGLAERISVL
# [16] = target: Interleukin-1 receptor-associated kinase 3 (Homo sapiens) (UniProt Q9Y616); settings: Compound concentration 100.0 nM
# [17] = target: Bone morphogenetic protein receptor type-1A (Homo sapiens) (UniProt P36894); settings: Compound concentration 100.0 nM
# [18] = target: Casein kinase I isoform gamma-3 (Homo sapiens) (UniProt Q9Y6M4); settings: Compound concentration 100.0 nM
# [19] = target: Ephrin type-A receptor 6 (Homo sapiens) (UniProt Q9UF33); settings: Compound concentration 100.0 nM
# [20] = target: Inhibitor of nuclear factor kappa-B kinase subunit alpha (Homo sapiens) (UniProt O15111); settings: Compound concentration 100.0 nM
# [21] = target: Muscarinic acetylcholine receptor M1 (Homo sapiens) (UniProt P11229); settings: Compound concentration 10.0 uM
# Chain of Muscarinic acetylcholine receptor M1 (Homo sapiens) (P11229 whole entry): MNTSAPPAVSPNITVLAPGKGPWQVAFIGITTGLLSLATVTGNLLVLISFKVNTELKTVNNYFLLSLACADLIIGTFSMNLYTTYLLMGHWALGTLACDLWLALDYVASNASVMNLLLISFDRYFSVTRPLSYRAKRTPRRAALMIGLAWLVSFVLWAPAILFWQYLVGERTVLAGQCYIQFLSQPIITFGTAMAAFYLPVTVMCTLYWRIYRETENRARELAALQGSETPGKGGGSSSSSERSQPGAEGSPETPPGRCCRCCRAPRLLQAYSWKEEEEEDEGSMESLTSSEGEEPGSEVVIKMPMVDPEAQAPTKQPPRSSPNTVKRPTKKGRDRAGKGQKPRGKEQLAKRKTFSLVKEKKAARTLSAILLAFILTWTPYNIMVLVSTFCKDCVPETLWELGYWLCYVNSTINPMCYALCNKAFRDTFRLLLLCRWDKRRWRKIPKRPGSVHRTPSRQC
# [22] = target: Alpha-1B adrenergic receptor (Homo sapiens) (UniProt P35368); settings: Compound concentration 10.0 uM
# [23] = target: Casein kinase I isoform alpha-like (Homo sapiens) (UniProt Q8N752); settings: Compound concentration 100.0 nM
# Chain of Casein kinase I isoform alpha-like (Homo sapiens) (Q8N752 whole entry, canonical isoform): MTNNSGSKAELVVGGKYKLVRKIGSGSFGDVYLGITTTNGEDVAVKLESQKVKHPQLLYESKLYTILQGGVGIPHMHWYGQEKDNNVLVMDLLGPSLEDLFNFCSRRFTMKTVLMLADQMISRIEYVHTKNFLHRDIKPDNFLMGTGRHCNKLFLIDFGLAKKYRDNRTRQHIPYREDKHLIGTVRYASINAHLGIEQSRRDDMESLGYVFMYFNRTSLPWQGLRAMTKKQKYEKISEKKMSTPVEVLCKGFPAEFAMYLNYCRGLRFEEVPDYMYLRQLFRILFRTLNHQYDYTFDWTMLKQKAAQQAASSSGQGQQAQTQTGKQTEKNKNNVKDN
# [24] = target: Serine/threonine-protein kinase MARK1 (Homo sapiens) (UniProt Q9P0L2); settings: Compound concentration 100.0 nM
# [25] = target: Serine/threonine-protein kinase 32C (Homo sapiens) (UniProt Q86UX6); settings: Compound concentration 100.0 nM
# Chain of Serine/threonine-protein kinase 32C (Homo sapiens) (Q86UX6 whole entry, canonical isoform): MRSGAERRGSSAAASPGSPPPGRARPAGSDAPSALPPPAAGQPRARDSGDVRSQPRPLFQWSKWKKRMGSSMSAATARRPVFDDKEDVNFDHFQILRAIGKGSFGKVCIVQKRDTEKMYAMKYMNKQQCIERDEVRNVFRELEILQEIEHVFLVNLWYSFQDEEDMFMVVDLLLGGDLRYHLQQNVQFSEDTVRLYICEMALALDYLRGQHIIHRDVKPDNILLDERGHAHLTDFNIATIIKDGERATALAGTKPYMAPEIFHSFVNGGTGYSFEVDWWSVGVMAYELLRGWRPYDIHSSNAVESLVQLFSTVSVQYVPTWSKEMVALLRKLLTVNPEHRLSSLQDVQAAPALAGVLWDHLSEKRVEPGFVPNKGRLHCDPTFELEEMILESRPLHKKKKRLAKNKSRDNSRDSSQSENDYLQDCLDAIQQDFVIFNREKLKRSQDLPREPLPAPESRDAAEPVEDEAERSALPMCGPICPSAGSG
# [26] = target: Casein kinase I isoform delta (Homo sapiens) (UniProt P48730); settings: Compound concentration 100.0 nM
# [27] = system: Receptor-type tyrosine-protein kinase FLT3 (Homo sapiens), P36888 [D835H]; settings: Compound concentration 100.0 nM
# [28] = target: Serine/threonine-protein kinase Chk2 (Homo sapiens) (UniProt O96017); settings: Compound concentration 100.0 nM
# [29] = target: Myosin-IIIb (Homo sapiens) (UniProt Q8WXR4); settings: Compound concentration 100.0 nM
# [30] = target: Kappa-type opioid receptor (Homo sapiens, UniProt P41145); experiment: GPCRScan assay: inhibition of KOR; set-up: radioligand conc. used [nm] 0.6 – 1.2, parental cells stable HEK
# Chain of Kappa-type opioid receptor (P41145 whole entry): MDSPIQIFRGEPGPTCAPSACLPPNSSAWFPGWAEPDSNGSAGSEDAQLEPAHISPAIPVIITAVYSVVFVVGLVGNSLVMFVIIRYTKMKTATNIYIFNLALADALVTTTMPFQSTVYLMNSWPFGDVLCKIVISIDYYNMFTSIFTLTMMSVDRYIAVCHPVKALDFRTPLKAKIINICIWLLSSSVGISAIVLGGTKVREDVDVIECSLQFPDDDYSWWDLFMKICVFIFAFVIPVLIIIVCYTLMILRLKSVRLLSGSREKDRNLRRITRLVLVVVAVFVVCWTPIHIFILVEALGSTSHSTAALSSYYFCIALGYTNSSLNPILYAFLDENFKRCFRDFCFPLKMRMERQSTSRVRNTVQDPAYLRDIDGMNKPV
# [31] = target: Tyrosine-protein kinase receptor UFO (Homo sapiens) (UniProt P30530); settings: Compound concentration 100.0 nM
# [32] = target: Activin receptor type-1-like (Homo sapiens) (UniProt P37023); settings: Compound concentration 100.0 nM
# [33] = target: Calcium/calmodulin-dependent protein kinase type 1D (Homo sapiens) (UniProt Q8IU85); settings: Compound concentration 100.0 nM
# [34] = target: High affinity nerve growth factor receptor (Homo sapiens) (UniProt P04629); settings: Compound concentration 100.0 nM
# Chain of Cyclin-dependent kinase 18 (Homo sapiens) (Q07002 whole entry): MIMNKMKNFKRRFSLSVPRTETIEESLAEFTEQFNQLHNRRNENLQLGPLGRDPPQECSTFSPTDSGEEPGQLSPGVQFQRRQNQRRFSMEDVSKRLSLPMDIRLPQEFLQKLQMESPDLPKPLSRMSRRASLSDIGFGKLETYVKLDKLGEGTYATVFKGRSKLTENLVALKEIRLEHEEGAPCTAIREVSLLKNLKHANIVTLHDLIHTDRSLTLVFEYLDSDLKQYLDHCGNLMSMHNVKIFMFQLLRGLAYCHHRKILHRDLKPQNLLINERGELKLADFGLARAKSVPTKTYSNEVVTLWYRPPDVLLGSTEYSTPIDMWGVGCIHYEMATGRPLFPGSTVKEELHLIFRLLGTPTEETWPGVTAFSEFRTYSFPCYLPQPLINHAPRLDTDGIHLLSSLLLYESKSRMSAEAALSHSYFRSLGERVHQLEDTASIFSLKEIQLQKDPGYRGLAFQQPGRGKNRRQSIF
# Chain of Serine/threonine-protein kinase WNK4 (Homo sapiens) (Q96J92 whole entry): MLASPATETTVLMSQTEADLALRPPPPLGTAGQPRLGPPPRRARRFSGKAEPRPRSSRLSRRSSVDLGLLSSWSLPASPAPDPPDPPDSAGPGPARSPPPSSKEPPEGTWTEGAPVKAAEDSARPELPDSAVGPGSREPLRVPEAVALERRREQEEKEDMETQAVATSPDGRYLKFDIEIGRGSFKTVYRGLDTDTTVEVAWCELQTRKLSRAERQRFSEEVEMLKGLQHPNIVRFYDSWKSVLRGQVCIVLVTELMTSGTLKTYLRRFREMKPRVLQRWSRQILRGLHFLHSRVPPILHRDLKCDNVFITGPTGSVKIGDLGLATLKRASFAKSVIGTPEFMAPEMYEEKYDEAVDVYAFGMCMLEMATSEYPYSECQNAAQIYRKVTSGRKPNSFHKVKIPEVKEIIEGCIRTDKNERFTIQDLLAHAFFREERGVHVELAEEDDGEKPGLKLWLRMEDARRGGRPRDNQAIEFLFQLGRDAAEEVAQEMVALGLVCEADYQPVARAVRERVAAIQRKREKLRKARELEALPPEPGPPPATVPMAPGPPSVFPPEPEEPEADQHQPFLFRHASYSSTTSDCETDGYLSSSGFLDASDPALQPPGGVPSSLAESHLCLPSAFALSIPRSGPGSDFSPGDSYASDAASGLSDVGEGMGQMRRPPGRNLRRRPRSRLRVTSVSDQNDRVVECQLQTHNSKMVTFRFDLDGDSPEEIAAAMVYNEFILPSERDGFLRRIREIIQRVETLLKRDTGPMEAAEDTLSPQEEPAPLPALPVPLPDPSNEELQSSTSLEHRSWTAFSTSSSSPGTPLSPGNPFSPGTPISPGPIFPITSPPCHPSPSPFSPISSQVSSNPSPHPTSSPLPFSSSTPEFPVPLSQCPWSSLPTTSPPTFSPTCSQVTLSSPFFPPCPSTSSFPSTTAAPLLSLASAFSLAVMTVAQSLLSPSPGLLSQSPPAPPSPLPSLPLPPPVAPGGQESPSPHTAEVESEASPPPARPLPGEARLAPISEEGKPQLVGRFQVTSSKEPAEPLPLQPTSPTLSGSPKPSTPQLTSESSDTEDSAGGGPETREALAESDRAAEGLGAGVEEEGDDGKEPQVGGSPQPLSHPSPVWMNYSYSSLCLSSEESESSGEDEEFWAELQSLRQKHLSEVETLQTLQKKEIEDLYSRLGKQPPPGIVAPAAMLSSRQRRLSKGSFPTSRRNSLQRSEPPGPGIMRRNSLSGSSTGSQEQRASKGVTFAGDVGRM
Structure (SMILES),residual activity [1] [%],residual activity [2] [%],residual activity [3] [%],residual activity [4] [%],residual activity [5] [%],residual activity [6] [%],residual activity [7] [%],residual activity [8] [%],residual activity [9] [%],inhibition [10] [%],residual activity [11] [%],residual activity [12] [%],residual activity [13] [%],residual activity [14] [%],residual activity [15] [%],residual activity [16] [%],residual activity [17] [%],residual activity [18] [%],residual activity [19] [%],residual activity [20] [%],also measured
Cn1cc(Cl)c2c(Oc3c(F)cc(Nc4cc(Cl)nc(N)n4)cc3F)ccnc21 [BAY-4900],100,94,93,100,94,100,100,100,97,10.2,94,90,85,72,91,97,95,100,100,85,inhibition [21]: -5.04%; inhibition [22]: 18.3%; residual activity [23]: 98%; residual activity [24]: 100%; residual activity [25]: 100%; residual activity [26]: 100%; residual activity [27]: 78%; residual activity [28]: 94%; residual activity [29]: 57%; Ki [30]: 391 nM; residual activity [31]: 100%; residual activity [32]: 93%; residual activity [33]: 100%; residual activity [34]: 74%
Cc1c[nH]c2nccc(Oc3c(F)cc(Nc4cc(Cl)nc(N)n4)cc3F)c12 [BAY-549],100,84,92,100,100,100,76,94,69,-7.12,100,94,75,75,94,85,85,100,100,66,inhibition [21]: -0.22%; inhibition [22]: 17%; residual activity [23]: 89%; residual activity [24]: 82%; residual activity [25]: 93%; residual activity [26]: 100%; residual activity [27]: 100%; residual activity [28]: 89%; residual activity [29]: 91%; Ki [30]: 187 nM; residual activity [31]: 93%; residual activity [32]: 100%; residual activity [33]: 94%; residual activity [34]: 81%
